Results reported in patent US8685392B2 (priority 2009, dated 2014).

Tests used:
[1] = test system: gliadin-degrading enzymes of strain WSA-8
Method: (§1) Saliva ion buffer contains 50 mM KCl, 1 mM K2HPO4, 1 mM CaCl2 and 0.1 mM MgCl2 (pH 6.5). Cells were preincubated with the inhibitors for 15 min at room temperature prior to the addition of substrate. Z-YPQ-pNA hydrolysis was followed at 405 nm. Initial velocities of the enzymatic reaction are plotted.
(§2) Inhibitory effects were monitored toward the capacity to hydrolyze Z-YPQ-pNA. The initial rate of substrate proteolysis (Vi) was determined during the first 30 minute incubation time interval.

[2] = test system: gliadin-degrading enzymes of strain WSA-2B
Method: as §1, §2

For Cl.NCCc1ccc(S(=O)(=O)F)cc1 [AEBSF, 4-(2-Aminoethyl) benzenesulfonyl fluoride hydrochloride], the “inhibition of Z-YPQ-pNA hydrolysis (initial rate Vi) in WSA-8” value [1] was 78% and the “inhibition of Z-YPQ-pNA hydrolysis (initial rate Vi) in WSA-2B” value [2] was 97%.
